Results on 30 molecules are retold here after patent US7531543B2, “Phenylpiperazine cycloalkanol derivatives and methods of their use” (Wyeth, priority 2003, dated 2009).

SMILES strings stand for the structures. Where a name gives a salt, the structure may show the parent alone.

The first assay deals with T1, human hNET (Homo sapiens, UniProt P23975).
T1 construct: expressed in transfected cells; host or cells: MDCK-Net6 (MDCK cells stably transfected with hNET)
T1 sequence (P23975 whole entry): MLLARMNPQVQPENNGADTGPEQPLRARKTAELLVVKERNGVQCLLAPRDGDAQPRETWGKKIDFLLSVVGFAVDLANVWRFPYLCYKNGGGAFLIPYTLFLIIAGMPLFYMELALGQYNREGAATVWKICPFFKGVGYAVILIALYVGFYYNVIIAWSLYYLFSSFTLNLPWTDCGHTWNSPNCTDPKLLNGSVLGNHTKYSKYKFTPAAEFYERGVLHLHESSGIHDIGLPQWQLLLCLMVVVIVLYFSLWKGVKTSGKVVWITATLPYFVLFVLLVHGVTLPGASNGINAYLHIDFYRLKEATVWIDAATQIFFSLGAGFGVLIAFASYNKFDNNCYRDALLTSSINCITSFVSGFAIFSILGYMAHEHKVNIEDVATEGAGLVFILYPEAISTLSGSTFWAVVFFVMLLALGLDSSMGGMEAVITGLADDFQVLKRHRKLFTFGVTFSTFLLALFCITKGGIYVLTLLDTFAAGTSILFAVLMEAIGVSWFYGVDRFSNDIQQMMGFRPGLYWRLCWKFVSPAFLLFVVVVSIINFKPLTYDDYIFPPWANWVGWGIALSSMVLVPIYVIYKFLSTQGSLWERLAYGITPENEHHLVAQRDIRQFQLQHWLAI
Briefly: Norepinephrine (NE) uptake assay in MDCK-Net6 cells. Type of assay: cell-based. The settings on record: 1 μM test compound; [3H]NE uptake, MDCK-Net6 cells stably transfected with hNET. As to the method:
MDCK-Net6 cells, stably transfected with human hNET (Pacholczyk, T., R. D. Blakely, and S. G. Amara, Nature, 1991, 350(6316): p. 350-4) were cultured in growth medium containing high glucose DMEM (Gibco, Cat. No. 11995), 10% FBS (dialyzed, heat-inactivated, US Bio-Technologies, Lot FBD1129HI) and 500 µg/ml G418 (Gibco, Cat. No. 10131). Cells were plated at 300,000/T75 flask and cells were split twice weekly. The JAR cell line (human placental choriocarcinoma) was purchased from ATCC (Cat. No. HTB-144). The cells were cultured in growth medium containing RPMI 1640 (Gibco, Cat. No. 72400), 10% FBS (Irvine, Cat. No. 3000), 1% sodium pyruvate (Gibco, Cat. No. 1136) and 0.25% glucose. Cells were plated at 250,000 cells/T75 flask and split twice weekly. For all assays, cells were plated in Wallac 96-well sterile plates (PerkinElmer, Cat. No. 3983498).
Norepinephrine (NE) Uptake Assay
On day 1, cells were plated at 3,000 cells/well in growth medium and maintained in a cell incubator (37° C., 5% CO2). On day 2, growth medium was replaced with 200 μl of assay buffer (25 mM HEPES; 120 mM NaCl; 5 mM KCl; 2.5 mM CaCl2; 1.2 mM MgSO4; 2 mg/ml glucose (pH 7.4, 37° C.)) containing 0.2 mg/ml ascorbic acid and 10 μM pargyline. Plates containing cells with 200 μl of assay buffer were equilibrated for 10 minutes at 37° C. prior to addition of compounds. A stock solution of desipramine was prepared in DMSO (10 mM) and delivered to triplicate wells containing cells for a final test concentration of 1 μM. Data from these wells were used to define non-specific NE uptake (minimum NE uptake). Test compounds were prepared in DMSO (10 mM) and diluted in assay buffer according to test range (1 to 10,000 nM). Twenty-five microliters of assay buffer (maximum NE uptake) or test compound were added directly to triplicate wells containing cells in 200 μl of assay buffer. The cells in assay buffer with test compounds were incubated for 20 minutes at 37° C. To initiate the NE uptake, [^3H]NE diluted in assay buffer (120 nM final assay concentration) was delivered in 25 μl aliquots to each well and the plates were incubated for 5 minutes (37° C.). The reaction was terminated by decanting the supernatant from the plate. The plates containing cells were washed twice with 200 μl assay buffer (37° C.) to remove free radioligand. The plates were then inverted, left to dry for 2 minutes, then reinverted and air-dried for an additional 10 minutes. The cells were lysed in 25 μl of 0.25 N NaOH solution (4° C.), placed on a shake table and vigorously shaken for 5 minutes. After cell lysis, 75 μl of scintillation cocktail was added to each well and the plates were sealed with film tape. The plates were returned to the shake table and vigorously shaken for a minimum of 10 minutes to ensure adequate partitioning of organic and aqueous solutions. The plates were counted in a Wallac Microbeta counter (PerkinElmer) to collect the raw cpm data.
For each experiment, a data stream of cpm values collected from the Wallac Microbeta counter was downloaded to a Microsoft Excel statistical application program. Calculations of EC50 values were made using the transformed-both-sides logistic dose response program written by Wyeth Biometrics Department. The statistical program uses mean cpm values from wells representing maximum binding or uptake (assay buffer) and mean cpm values from wells representing minimum binding or uptake ((1 μM desipramine (hNET) or 1 μM paroxetine (hSERT)). Estimation of the EC50 value was completed on a log scale and the line was fit between the maximum and minimum binding or uptake values. All graphic data representation was generated by normalizing each data point to a mean percent based on the maximum and minimum binding or uptake values. The EC50 values reported from multiple experiments were calculated by pooling the raw data from each experiment and analyzing the pooled data as one experiment.
The term inhibition denotes the change of the read-out against control, counted positive when it falls. Take `OC1(C(CN2CCNCC2)c2ccc(Cl)c(Cl)c2)CCCCC1` (centres unmarked) [Example 6, 1-[1-(3,4-dichlorophenyl)-2-piperazin-1-ylethyl]cyclohexanol dihydrochloride]: the inhibition at 1 µM worked out at 87%.

Turning to `CN1CCN(CC(c2cccc(F)c2)C2(O)CCC2)CC1` (centres unmarked) [Example 29, 1-[1-(3-fluorophenyl)-2-(4-methylpiperazin-1-yl)ethyl]cyclobutanol dihydrochloride], the inhibition at 1 µM came out at 12%.

Consider `CN1CCN(CC(c2cccc(Br)c2)C2(O)CCCCCCC2)CC1` (centres unmarked) [Example 40, 1-[1-(3-bromophenyl)-2-(4-methylpiperazin-1-yl)ethyl]cyclooctanol dihydrochloride], for which the inhibition at 1 µM was found to be 44%.

`OC1(C(CN2CCNCC2)c2ccccc2Br)CCCCC1` (centres unmarked) [Example 33, 1-[1-(2-bromophenyl)-2-piperazin-1-ylethyl]cyclohexanol dihydrochloride]: the inhibition at 1 µM came out at 35%.

Consider `COc1ccc(C(CN2CCNCC2)C2(O)CCCC2)cc1Br` (centres unmarked) [Example 13, 1-[1-(3-bromo-4-methoxyphenyl)-2-piperazin-1-ylethyl]cyclopentanol dihydrochloride], for which the inhibition at 1 µM was found to be 53%.

For `Cl.Cl.OC1(C(CN2CCNCC2)c2ccc(Br)cc2)CCC1` (centres unmarked) [Example 20, 1-[1-(4-bromophenyl)-2-piperazin-1-ylethyl]cyclobutanol dihydrochloride], the “% Inhibition @ 1 μM (hNET)” value is recorded as 55%.

For `CN1CCN(CC(c2ccc(Br)cc2)C2(O)CCC2)CC1` (centres unmarked) [Example 21, 1-[1-(4-bromophenyl)-2-(4-methylpiperazin-1-yl)ethyl]cyclobutanol dihydrochloride], the inhibition at 1 µM stood at 36%.

Regarding `OC1(C(CN2CCNCC2)c2cccc(Br)c2)CCCCCC1` (centres unmarked) [Example 7, 1-[1-(3-bromophenyl)-2-piperazin-1-ylethyl]cycloheptanol dihydrochloride], the inhibition at 1 µM was 86%.

As to `OC1(C(CN2CCNCC2)c2cccc(Br)c2)CCCCCCC1` (centres unmarked) [Example 37, 1-[1-(3-bromophenyl)-2-piperazin-1-ylethyl]cyclooctanol dihydrochloride], the inhibition at 1 µM stood at 28%.

Turning to `OC1(C(CN2CCNCC2)c2ccccc2F)CCC1` (centres unmarked) [Example 28, 1-[1-(2-fluorophenyl)-2-piperazin-1-ylethyl]cyclobutanol dihydrochloride], the inhibition at 1 µM was determined as 14%.

In the case of `C[C@@H]1CN(CC(c2cccc(Cl)c2)C2(O)CCCCC2)C[C@H](C)N1` (stereo partly drawn) [Example 2, 1-{1-(3-chlorophenyl)-2-[(3R,5S)-3,5-dimethylpiperazin-1-yl]ethyl}cyclohexanol dihydrochloride], the inhibition at 1 µM was found to be 97%.

As to `CN1CCN(CC(c2cccc(Cl)c2)C2(O)CCC2)CC1` (centres unmarked) [Example 24, 1-[1-(3-chlorophenyl)-2-(4-methylpiperazin-1-yl)ethyl]cyclobutanol dihydrochloride], the inhibition at 1 µM came to 34%.

As to `OC1(C(CN2CCNCC2)c2cccc(Cl)c2)CCC1` (centres unmarked) [Example 23, 1-[1-(3-chlorophenyl)-2-piperazin-1-ylethyl]cyclobutanol dihydrochloride], the inhibition at 1 µM is 28%.

As to `C[C@@H]1CN(CC(c2cccc(Cl)c2)C2(O)CCCCC2)CCN1` (stereo partly drawn) [Example 5, 1-{1-(3-chlorophenyl)-2-[(3R)-3-methylpiperazin-1-yl]ethyl}cyclohexanol dihydrochloride], the inhibition at 1 µM came out at 94%.

Take `OC1(C(CN2CCNCC2)c2ccc(Br)cc2)CCCCC1` (centres unmarked) [Example 17, 1-[1-(4-bromophenyl)-2-piperazin-1-ylethyl]cyclohexanol dihydrochloride]: the inhibition at 1 µM amounted to 46%.

Take `OC1(C(CN2CCNCC2)c2cccc(Br)c2)CCC1` (centres unmarked) [Example 27, 1-[1-(3-bromophenyl)-2-piperazin-1-ylethyl]cyclobutanol dihydrochloride]: the inhibition at 1 µM amounted to 22%.

With `OC1(C(CN2CCNCC2)c2cccc(C(F)(F)F)c2)CCC1` (centres unmarked) [Example 14, 1-{2-piperazin-1-yl-1-[3-(trifluoromethyl)phenyl]ethyl}cyclobutanol dihydrochloride], the inhibition at 1 µM stood at 27%.

For the molecule `CN1CCN(CC(c2cccc(C(F)(F)F)c2)C2(O)CCC2)CC1` (centres unmarked) [Example 15, 1-{2-(4-methylpiperazin-1-yl)-1-[3-(trifluoromethyl)phenyl]ethyl}cyclobutanol dihydrochloride], the inhibition at 1 µM came to 51%.

In the case of `CN1CCN(CC(c2ccc(Cl)cc2)C2(O)CCC2)CC1` (centres unmarked) [Example 30, 1-[1-(4-chlorophenyl)-2-(4-methylpiperazin-1-yl)ethyl]cyclobutanol dihydrochloride], the inhibition at 1 µM was -1%.

`OC1(C(CN2CCNCC2)c2ccc(Br)cc2)CCC1` (centres unmarked) [Example 12, 1-[1-(4-bromophenyl)-2-piperazin-1-ylethyl]cyclobutanol dihydrochloride]: the inhibition at 1 µM stood at 55%.

With `OC1(C(CN2CCNCC2)c2ccccc2F)CCCCC1` (centres unmarked) [Example 25, 1-[1-(2-fluorophenyl)-2-piperazin-1-ylethyl]cyclohexanol dihydrochloride], the inhibition at 1 µM is 31%.

Regarding `OC1(C(CN2CCNCC2)c2cccc(F)c2)CCC1` (centres unmarked) [Example 22, 1-[1-(3-fluorophenyl)-2-piperazin-1-ylethyl]cyclobutanol dihydrochloride], the inhibition at 1 µM worked out at 34%.

As for `COc1ccc(C(CN2CCNCC2)C2(O)CCCCCCC2)cc1Br` (centres unmarked) [Example 38, 1-[1-(3-bromo-4-methoxyphenyl)-2-piperazin-1-ylethyl]cyclooctanol dihydrochloride], the inhibition at 1 µM amounted to 42%.

Take `OC1(C(CN2CCNCC2)c2cccc(Cl)c2)CCCC1` (centres unmarked) [Example 10, 1-[1-(3-chlorophenyl)-2-piperazin-1-ylethyl]cyclopentanol dihydrochloride]: the inhibition at 1 µM was determined as 63%.

For `CN1CCN(CC(c2cccc(Cl)c2)C2(O)CCCCCCC2)CC1` (centres unmarked) [Example 39, 1-[1-(3-chlorophenyl)-2-(4-methylpiperazin-1-yl)ethyl]cyclooctanol dihydrochloride], the inhibition at 1 µM came to 42%.

On to `OC1(C(CN2CCNCC2)c2ccc(Cl)cc2)CCCCC1` (centres unmarked) [Example 26, 1-[1-(4-chlorophenyl)-2-piperazin-1-ylethyl]cyclohexanol dihydrochloride], for which the inhibition at 1 µM amounted to 29%.

As to `OC1(C(CN2CCNCC2)c2ccc(F)cc2)CCC1` (centres unmarked) [Example 19, 1-[1-(4-fluorophenyl)-2-piperazin-1-ylethyl]cyclobutanol dihydrochloride], the inhibition at 1 µM was found to be 43%.

With `OC1(C(CN2CCNCC2)c2ccc(F)cc2)CCCCC1` (centres unmarked) [Example 11, 1-[1-(4-fluorophenyl)-2-piperazin-1-ylethyl]cyclohexanol dihydrochloride], the inhibition at 1 µM is 60%.

Take `OC1(C(CN2CCNCC2)c2cccc(F)c2)CCCCC1` (centres unmarked) [Example 9, 1-[1-(3-fluorophenyl)-2-piperazin-1-ylethyl]cyclohexanol dihydrochloride]: the inhibition at 1 µM came out at 79%.

The assay is the same for the next values; noted with them: [3H]NE uptake, MDCK-Net6 cells stably transfected with hNET; test range 1 to 10,000 nM.
By EC50 is commonly meant the concentration giving half of the maximal effect. `OC1(C(CN2CCNCC2)c2ccc(Cl)c(Cl)c2)CCCCC1` (centres unmarked) [Example 6, 1-[1-(3,4-dichlorophenyl)-2-piperazin-1-ylethyl]cyclohexanol dihydrochloride] had an EC50 of 210 nM.

For the molecule `C[C@@H]1CN(CC(c2cccc(Cl)c2)C2(O)CCCCC2)C[C@H](C)N1` (stereo partly drawn) [Example 2, 1-{1-(3-chlorophenyl)-2-[(3R,5S)-3,5-dimethylpiperazin-1-yl]ethyl}cyclohexanol dihydrochloride], the midpoint of the response, the EC50, lay at 150 nM.

`C[C@@H]1CN(CC(c2cccc(Cl)c2)C2(O)CCCCC2)CCN1` (stereo partly drawn) [Example 5, 1-{1-(3-chlorophenyl)-2-[(3R)-3-methylpiperazin-1-yl]ethyl}cyclohexanol dihydrochloride] displayed an EC50 of 110 nM.

In the case of `OC1([C@@H](CN2CCNCC2)c2cccc(Cl)c2)CCCCC1` [Example 35, 1-[(1R)-1-(3-chlorophenyl)-2-piperazin-1-ylethyl]cyclohexanol dihydrochloride], the EC50 came out at 540 nM.

`OC1(C(CN2CCNCC2)c2ccc(F)cc2)CCCCC1` (centres unmarked) [Example 11, 1-[1-(4-fluorophenyl)-2-piperazin-1-ylethyl]cyclohexanol dihydrochloride] registered a 50% effective concentration (EC50) of 6400 nM.

`OC1(C(CN2CCNCC2)c2cccc(F)c2)CCCCC1` (centres unmarked) [Example 9, 1-[1-(3-fluorophenyl)-2-piperazin-1-ylethyl]cyclohexanol dihydrochloride] showed an EC50 of 720 nM.
